In patent publication US10308647B2, “Fused imidazole derivatives as IDO/TDO inhibitors” (SciFluor Life Sciences, Inc., priority 2015, dated 2019):

What was measured:
recombinant IDO1 = recombinant IDO1 (Homo sapiens, UniProt P14902); experiment: IDO1 enzymatic assay (UV absorption, N-formylkynurenine formation); assay type: biochemical; settings: for IC50: 40 nM IDO1, 900 μM tryptophan, 180 min, room temperature, read-out: Enzyme IDO IC50; for Enzyme IDO IC50 ratio compared to Cmpd 2: IC50 of compound divided by IC50 of reference compound 2
Chain of recombinant IDO1 (P14902 whole entry, species assumed): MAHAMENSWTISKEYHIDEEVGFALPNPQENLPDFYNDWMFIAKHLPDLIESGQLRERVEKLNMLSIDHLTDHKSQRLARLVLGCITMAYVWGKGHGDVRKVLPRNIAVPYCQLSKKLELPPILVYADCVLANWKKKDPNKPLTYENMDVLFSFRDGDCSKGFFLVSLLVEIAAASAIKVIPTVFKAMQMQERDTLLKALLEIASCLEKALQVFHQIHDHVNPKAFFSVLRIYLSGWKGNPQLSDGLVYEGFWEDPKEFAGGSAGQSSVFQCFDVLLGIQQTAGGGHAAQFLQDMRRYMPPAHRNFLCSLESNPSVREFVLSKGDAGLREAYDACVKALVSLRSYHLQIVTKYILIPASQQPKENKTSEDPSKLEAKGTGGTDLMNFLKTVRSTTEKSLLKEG
Description: (§1) The assay was performed by UV absorption using either recombinant IDO1 or TDO2 and L-Tryptophan as substrate. The UV absorption signal at 321 nm was correlated with the amount of N-formylkynurenine reaction product of IDO1 and TDO2.
(§2) The compounds of the present application were diluted in 10% DMSO and 5 μl of the dilution was added to a 100 μl reaction so that the final concentration of DMSO is 0.5% in all reactions.
IDO1 Assay: All of the reactions were conducted at room temperature. The 100 μl reaction mixture in IDO Assay Buffer contains 40 nM IDO1, the indicated amount of the compound, 900 μM tryptophan, and the coupled reaction components. The reaction mixture was incubated for 180 min prior to reading of the UV absorption signal. For the negative control (blank), 5 μl of the assay buffer was added instead of the IDO1.
(§3) Absorption signals were measured using a Tecan Infinite M1000 plate reader.
(§4) Data analysis: Binding experiments were performed in duplicate at each concentration. The data were analyzed using the computer software, Graphpad Prism. In the absence of the compound, the absorption signal (At) in each data set was defined as 100% activity. In the absence of the IDO1, the absorption signal (Ab) in each data set was defined as 0% activity. The percent activity in the presence of each compound was calculated according to the following equation: % activity=[(A−Ab)/(At−Ab)]×100, where A=the absorption signal in the presence of the compound. The percent inhibition was calculated according to the following equation: % inhibition=100−% activity. The values of % activity versus a series of compound concentrations were then plotted using non-linear regression analysis of Sigmoidal dose-response curve generated with the equation Y=B+(T−B)/1+10^((LogIC50−X)×Hill Slope), where Y=percent activity, B=minimum percent activity, T=maximum percent activity, X=logarithm of compound and Hill Slope=slope factor or Hill coefficient. The IC50 value was determined by the concentration causing a half-maximal percent activity.

recombinant TDO2 = recombinant TDO2 (Homo sapiens, UniProt P48775); experiment: TDO2 enzymatic assay (UV absorption, N-formylkynurenine formation); assay type: biochemical; settings: for IC50: 50 nM TDO2, 200 μM tryptophan, 60 min, room temperature, read-out: Enzyme TDO IC50; for Enzyme TDO IC50 ratio compared to Ref. Cmpd 1: IC50 of compound divided by IC50 of Ref. Cmpd 1
Chain of recombinant TDO2 (P48775 whole entry, species assumed): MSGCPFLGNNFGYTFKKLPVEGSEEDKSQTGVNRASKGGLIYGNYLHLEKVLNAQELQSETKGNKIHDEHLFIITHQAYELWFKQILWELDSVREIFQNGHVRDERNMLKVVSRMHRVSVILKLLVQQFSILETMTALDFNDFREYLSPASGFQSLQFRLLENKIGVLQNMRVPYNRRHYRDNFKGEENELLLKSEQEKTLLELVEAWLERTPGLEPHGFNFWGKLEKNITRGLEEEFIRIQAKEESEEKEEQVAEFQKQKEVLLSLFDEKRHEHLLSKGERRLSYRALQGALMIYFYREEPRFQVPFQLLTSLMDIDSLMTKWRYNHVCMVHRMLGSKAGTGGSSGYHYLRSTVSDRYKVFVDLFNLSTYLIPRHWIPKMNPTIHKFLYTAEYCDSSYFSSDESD
Description: as §1, §2
TDO2 Assay: All of the reactions were conducted at room temperature. The 100 μl reaction mixture in TDO2 Assay Buffer contains 50 nM TDO2, the indicated amount of the compound, 200 μM tryptophan, and the coupled reaction components. The reaction mixture was incubated for 60 min prior to reading of the UV absorption signal. For the negative control (blank), 5 μl of the assay buffer was added instead of the TDO2.
as §3
as §4, with “The percent inhibition was calculated according to the following equation: % inhibition=100−% activity.” left out

Structure (SMILES) | IC50 (recombinant IDO1) [µM] | Enzyme IDO IC50 ratio compared to Cmpd 2 (recombinant IDO1) | IC50 (recombinant TDO2) [µM] | Enzyme TDO IC50 ratio compared to Ref. Cmpd 1 (recombinant TDO2)
O[C@@H](C[C@@H]1Cn2cncc2-c2ccccc21)C1CCCCC1 (racemic) [Cmpd 306] | 1.2 | 29.27 | 0.286 | 1.35
OC(CC1(C(F)(F)F)c2ccccc2-c2cncn21)C1CCCCC1 (single isomer, unassigned) [Cmpd 290] | > 100 |  |  | 18.75
OC(CC1Cc2ccccc2-c2cncn21)C1CCCCC1 (centres unmarked) [Cmpd 278] | 0.149 | 3.47 | 0.165 | 0.43
OC(CC1CCc2ccccc2-c2cncn21)C1CCCCC1 (centres unmarked) [Cmpd 279] | 7.1 | 165.12 | 2.36 | 6.21
OC(CC1(C(F)(F)F)c2ccccc2-c2cncn21)C1CCCCC1 (centres unmarked) [Cmpd 291] | > 100 |  | 26 | 16.25
OC1CCC(C(O)CC2(C(F)(F)F)c3c(F)cccc3-c3cncn32)CC1 (centres unmarked) [Cmpd 293] | > 100 |  | > 100 | 
CC1(CC(O)C2CCCCC2)c2ccccc2-c2cncn21 (centres unmarked) [Cmpd 296] | 13.1 | 195.52 | 2.3 | 2.30
OC(CC1c2ccccc2Cc2cncn21)C1CCCCC1 (centres unmarked) [Cmpd 297] | 14 | 129.63 | 2.2 | 6.90
OC1c2ccccc2C(CC(O)C2CCCCC2)n2cncc21 (centres unmarked) [Cmpd 298] | > 30 |  | > 30 | 
OC(CCc1c(F)cccc1-c1c[nH]cn1)C1CCCCC1 (centres unmarked) [Cmpd 302] | 19.9 | 226.14 | 15.5 | 19.33
OC(/C=C/c1c(F)cccc1-c1c[nH]cn1)C1CCCCC1 (centres unmarked) [Cmpd 303] | > 30 |  | 9.2 | 11.47
OC(C1CCCCC1)C1CC1c1c(F)cccc1-c1c[nH]cn1 (centres unmarked) [Cmpd 304] | 12.5 | 142.05 | 3.1 | 3.87
FC(CC1Cn2cncc2-c2ccccc21)C1CCCCC1 (centres unmarked) [Cmpd 307] | 0.299 | 7.29 | 0.052 | 0.25
OC(CC1C(O)c2ccccc2-c2cncn21)C1CCCCC1 (centres unmarked) [Cmpd 308] | 23 | 442.31 | 14.2 | 62.28
OC(CC1C(O)c2ccccc2-c2cncn21)C1CCCCC1 (centres unmarked) [Cmpd 309] | 5.5 | 105.77 | 7.6 | 33.33

Now from value to compound:

IC50 (recombinant IDO1) [µM] | Enzyme IDO IC50 ratio compared to Cmpd 2 (recombinant IDO1) | IC50 (recombinant TDO2) [µM] | Enzyme TDO IC50 ratio compared to Ref. Cmpd 1 (recombinant TDO2) | Structure (SMILES)
0.328 | 8.00 | 0.166 | 0.78 | O[C@@H](C[C@H]1Cn2cncc2-c2ccccc21)C1CCCCC1 (racemic) [Cmpd 305]
> 100 |  | > 100 |  | OC1CCC(C(O)CC2(C(F)(F)F)c3c(F)cccc3-c3cncn32)CC1 (centres unmarked) [Cmpd 292]
> 30 |  | > 30 |  | CC1c2ccccc2-c2cncn2C1C(O)C1CCCCC1 (centres unmarked) [Cmpd 294]
14.5 | 216.42 | 8.4 | 8.40 | CC1c2ccccc2-c2cncn2C1C(O)C1CCCCC1 (centres unmarked) [Cmpd 295]
0.133 | 1.51 | 0.096 | 0.12 | FC(CC1Cc2ccccc2-c2cncn21)C1CCCCC1 (centres unmarked) [Cmpd 301]
1.2 | 32.43 | 1.9 | 5.67 | OC1CCC(C(F)CC2Cc3ccccc3-c3cncn32)CC1 (centres unmarked) [Cmpd 310]
0.31 | 8.38 | 0.111 | 0.33 | FC(CC1Cc2ccccc2-c2cncn21)C1CCCCC1 (centres unmarked) [Cmpd 311]
0.049 | 1.32 | 0.078 | 0.23 | FC(CC1Cc2ccccc2-c2cncn21)C1CCCCC1 (centres unmarked) [Cmpd 312]
